Bounds are passed on as bounds.

The results in this text go back to patent EP0335331A1, “O- (1,2-Di-O-acetyl-glycero-3-phosphoryl)ethanolamine, a process for its preparation and its therapeutic use” (MAGIS FARMACEUTICI S.p.A., priority 1988, dated 1989).

One series deals with rat. Description: olive oil-induced alteration of lipoprotein state, plasma cholesterol and triglycerides. As to conditions: normally fed rat treated orally with 15 ml/kg of olive oil; greatest effect two hours after the olive oil treatment. It counts as in vivo. On the procedure:
The effect of the compound in terms of modifying the lipoprotein state and the plasma cholesterol and triglyceride levels, altered by oral administration of olive oil, was studied in normally fed rat treated orally with 15 ml/kg of olive oil at various concentrations.

The nature of series [1]: acute toxicity by the Weil method. As to conditions: in vivo, mouse, read-out: LD₅₀. An excerpt: The acute toxicity of the compound of formula (I) was studied on the mouse by the Weil method [Weil C.S. Biometr. 8, 249 (1952)].

On to `CC(=O)OCC(COP(=O)(O)OCCN)OC(C)=O` (centres unmarked) [compound of formula (I), O-(1,2-di-O-acetylglycero-3-phosphoryl)ethanolamine], for which the “effect on increase in triglycerides and cholesterol, reduction in the α-lipoproteins and increase in the β and pre-β fractions” value in the series on rat was “well antagonised by the compound, which proved able to return the parameters to normality”. Further, the LD50 in series [1] is above 2000 mg/kg.
